We go through 18 compounds from PubChem BioAssay AID330 (DTP/NCI, 2004).

Each structure is given as a SMILES string. Where “and” joins values, the source holds several entries; their conditions need not be identical. Equal entries are not always repeated. Inconclusive results and toxic doses are left out.

The experiment deals with P388 leukemia ip, CD2F1 mice, survival T/C. Kind of experiment: NCI In Vivo Anticancer Drug Screen. Data for tumor model P388 Leukemia (intraperitoneal) in CD2F1 (CDF1) mice. To be noted: endpoint: median survival time, higher = longer survival. The gist of the method: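 Mice carrying the transplanted tumor received test compound or vehicle. Survival was recorded in each group, and the value is the treated-group measurement divided by that of the vehicle-treated control group.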

Where [1] appears, read: dose: 25.0 mg/kg/injection, schedule: Q01DX009 (ip), vehicle: saline with Tween-80.
Where [2] appears, read: dose: 50.0 mg/kg/injection, schedule: Q01DX009 (ip), vehicle: saline with Tween-80.

As to `CC(=O)Oc1c(C)c(OC(C)=O)c2c(c1C(C)=O)OC1CC(=O)C(C(C)=O)=C(O)C21C` (stereo unspecified), the T/C by setting is: (dose: 6.25 mg/kg/injection, schedule: Q01DX009 (ip), vehicle: gum acacia) 101 % of control and 97 % of control; (dose: 12.5 mg/kg/injection, schedule: Q01DX009 (ip), vehicle: gum acacia) 100 % of control and 102 % of control; (dose: 25.0 mg/kg/injection, schedule: Q01DX009 (ip), vehicle: gum acacia) 102 % of control; (dose: 50.0 mg/kg/injection, schedule: Q01DX009 (ip), vehicle: gum acacia) 101 % of control and 104 % of control; (dose: 100.0 mg/kg/injection, schedule: Q01DX009 (ip), vehicle: gum acacia) 94 % of control.

Turning to `Cc1cc(Cl)ccc1NC(=O)/C(Cl)=C1/Sc2ccccc2NC1=O`, the T/C by setting is: (dose: 100.0 mg/kg/injection, schedule: Q01DX001 (ip), vehicle: saline with Tween-80) 105 % of control; (dose: 200.0 mg/kg/injection, schedule: Q01DX001 (ip), vehicle: saline with Tween-80) 97 % of control; (dose: 400.0 mg/kg/injection, schedule: Q01DX001 (ip), vehicle: saline with Tween-80) 97 % of control.

On to `C[Se](=C(C(=O)c1ccccc1)C(=O)c1ccccc1)c1ccccc1` (stereo unspecified), for which the T/C runs as follows: (dose: 100.0 mg/kg/injection, schedule: Q04DX002 (ip), vehicle: saline) 99 % of control; (dose: 200.0 mg/kg/injection, schedule: Q04DX002 (ip), vehicle: saline) 100 % of control; (dose: 400.0 mg/kg/injection, schedule: Q04DX002 (ip), vehicle: saline) 98 % of control.

Turning to `CCCCCCCCCCCCNc1ncnc2[nH]ncc12`, the T/C was 102 % of control (dose: 50.0 mg/kg/injection, schedule: Q01DX005 (ip), vehicle: saline with Tween-80); 98 % of control (dose: 100.0 mg/kg/injection, schedule: Q01DX005 (ip), vehicle: saline with Tween-80); 98 % of control (dose: 200.0 mg/kg/injection, schedule: Q01DX005 (ip), vehicle: saline with Tween-80).

Take `COc1cccc2c1C(=O)c1c(O)c3c(c(O)c1C2=O)C[C@@](O)(C(=O)COC(=O)CCCCC(=O)O)C[C@@H]3OC1CC(NC(=O)C(F)(F)F)C(O)C(C)O1` (stereo partly specified): the T/C was 118 % of control (dose: 9.38 mg/kg/injection, schedule: Q04DX003 (ip), vehicle: other); 123 % of control (dose: 18.75 mg/kg/injection, schedule: Q04DX003 (ip), vehicle: other); 119 % of control (dose: 18.75 mg/kg/injection, schedule: Q04DX003 (ip), vehicle: saline with Tween-80); 124 % of control (dose: 37.5 mg/kg/injection, schedule: Q04DX003 (ip), vehicle: other); 156 % of control (dose: 75.0 mg/kg/injection, schedule: Q04DX003 (ip), vehicle: other); 194 % of control (dose: 150.0 mg/kg/injection, schedule: Q04DX003 (ip), vehicle: other).

Take `COc1cc(-c2ccc(O)cc2)c(OC)c(O)c1-c1ccc(O)c(O)c1`: the T/C is 100 % of control (dose: 0.6 mg/kg/injection, schedule: Q01DX009 (ip), vehicle: saline); 95 % of control (dose: 1.2 mg/kg/injection, schedule: Q01DX009 (ip), vehicle: saline); 111 % of control (dose: 10.0 micrograms/kg/injection, schedule: Q01DX009 (ip), vehicle: saline with Tween-80); 105 % of control (dose: 20.0 micrograms/kg/injection, schedule: Q01DX009 (ip), vehicle: saline with Tween-80); 104 % of control (dose: 40.0 micrograms/kg/injection, schedule: Q01DX009 (ip), vehicle: saline with Tween-80); 105 % of control (dose: 80.0 micrograms/kg/injection, schedule: Q01DX009 (ip), vehicle: saline with Tween-80).

Regarding `Cn1c([N+](=O)[O-])cnc1/C=[N+](\[O-])C1CCCCC1`, the T/C is 100 % of control (dose: 50.0 mg/kg/injection, schedule: Q01DX009 (ip), vehicle: saline); 100 % of control (dose: 100.0 mg/kg/injection, schedule: Q01DX009 (ip), vehicle: saline); 102 % of control (dose: 200.0 mg/kg/injection, schedule: Q01DX009 (ip), vehicle: saline).

Take `O=C1c2ccccc2C(=O)C1(Br)c1ccc(Cl)cc1`: the T/C is 96 % of control (dose: 100.0 mg/kg/injection, schedule: Q04DX002 (ip), vehicle: saline with Tween-80); 101 % of control (dose: 200.0 mg/kg/injection, schedule: Q04DX002 (ip), vehicle: saline with Tween-80); 99 % of control (dose: 400.0 mg/kg/injection, schedule: Q04DX002 (ip), vehicle: saline with Tween-80).

On to `COC1/C=C/OC2(C)Oc3c(C)c(O)c4c(O)c(c(/C=N/NC5C6CC7CC(C6)CC5C7)c(O)c4c3C2=O)NC(=O)/C(C)=C/C=C/C(C)C(O)C(C)C(O)C(C)C(OC(C)=O)C1C` (stereo unspecified), for which the T/C was 106 % of control (dose: 12.5 mg/kg/injection, schedule: Q01DX009 (ip), vehicle: saline with Tween-80); 109 % of control under setting [1]; 113 % of control and 95 % of control under setting [2].

For `COC(=O)C(Cc1ccc(N(CCCl)CCCl)cc1)N=NNc1nc[nH]c1C(N)=O` (stereo unspecified), the T/C was 163 % of control (dose: 12.5 mg/kg/injection, schedule: Q04DX003 (ip), vehicle: saline with Tween-80); 168 % of control (dose: 25.0 mg/kg/injection, schedule: Q04DX003 (ip), vehicle: saline with Tween-80); 172 % of control (dose: 33.0 mg/kg/injection, schedule: Q04DX003 (ip), vehicle: saline with Tween-80); 181 % of control and 213 % of control (dose: 50.0 mg/kg/injection, schedule: Q04DX003 (ip), vehicle: saline with Tween-80); 231 % of control (dose: 75.0 mg/kg/injection, schedule: Q04DX003 (ip), vehicle: saline with Tween-80).

For `COc1cc(OC)c(C2CC(C)(O)Oc3cc4c(cc32)OCO4)c(OC)c1` (stereo unspecified), the T/C is, setting by setting: (dose: 60.0 mg/kg/injection, schedule: Q01DX005 (ip), vehicle: saline with Tween-80) 91 % of control; (dose: 120.0 mg/kg/injection, schedule: Q01DX005 (ip), vehicle: saline with Tween-80) 86 % of control; (dose: 240.0 mg/kg/injection, schedule: Q01DX005 (ip), vehicle: saline with Tween-80) 88 % of control.

`CC(=O)OCc1ncccc1OC(C)=O`: the T/C reads like this: under setting [1], 104 % of control; under setting [2], 111 % of control; (dose: 100.0 mg/kg/injection, schedule: Q01DX009 (ip), vehicle: saline with Tween-80) 104 % of control; (dose: 200.0 mg/kg/injection, schedule: Q01DX009 (ip), vehicle: saline with Tween-80) 109 % of control.

On to `CSc1nc(Cl)cc(=O)n1C`, for which the T/C by setting is: (dose: 6.25 mg/kg/injection, schedule: Q01DX005 (ip), vehicle: Klucel (hydroxypropylcellulose) (HPC)) 104 % of control; (dose: 12.5 mg/kg/injection, schedule: Q01DX005 (ip), vehicle: Klucel (hydroxypropylcellulose) (HPC)) 105 % of control; (dose: 25.0 mg/kg/injection, schedule: Q01DX005 (ip), vehicle: Klucel (hydroxypropylcellulose) (HPC)) 100 % of control and 92 % of control.

As for `c1ccc(C2SCC3COCN32)cc1` (stereo unspecified), the T/C is, setting by setting: (dose: 100.0 mg/kg/injection, schedule: Q04DX003 (ip), vehicle: saline with Tween-80) 97 % of control; (dose: 200.0 mg/kg/injection, schedule: Q04DX003 (ip), vehicle: saline with Tween-80) 101 % of control; (dose: 400.0 mg/kg/injection, schedule: Q04DX003 (ip), vehicle: saline with Tween-80) 100 % of control.

Turning to `Cc1cc2ccccc2nc1Cl`, the T/C runs as follows: (dose: 60.0 mg/kg/injection, schedule: Q01DX005 (ip), vehicle: saline + Tween-80 + alcohol) 100 % of control; (dose: 120.0 mg/kg/injection, schedule: Q01DX005 (ip), vehicle: saline + Tween-80 + alcohol) 104 % of control; (dose: 240.0 mg/kg/injection, schedule: Q01DX005 (ip), vehicle: saline + Tween-80 + alcohol) 104 % of control.

As for `Cc1cccnc1OCC(=O)O`, the T/C was 100 % of control and 93 % of control (dose: 60.0 mg/kg/injection, schedule: Q01DX005 (ip), vehicle: Klucel (hydroxypropylcellulose) (HPC)); 103 % of control and 90 % of control (dose: 120.0 mg/kg/injection, schedule: Q01DX005 (ip), vehicle: Klucel (hydroxypropylcellulose) (HPC)); 100 % of control and 92 % of control (dose: 240.0 mg/kg/injection, schedule: Q01DX005 (ip), vehicle: Klucel (hydroxypropylcellulose) (HPC)).

In the case of `CCOC(=O)CC1CCCN1` (stereo unspecified), the T/C runs as follows: (dose: 25.0 mg/kg/injection, schedule: Q01DX005 (ip), vehicle: saline) 110 % of control; (dose: 50.0 mg/kg/injection, schedule: Q01DX005 (ip), vehicle: saline) 101 % of control; (dose: 100.0 mg/kg/injection, schedule: Q01DX005 (ip), vehicle: saline) 97 % of control; (dose: 200.0 mg/kg/injection, schedule: Q01DX005 (ip), vehicle: saline) 106 % of control.

As for `Cc1oc(N)c(C#N)c1C`, the T/C by setting is: (dose: 100.0 mg/kg/injection, schedule: Q01DX009 (ip), vehicle: saline sonified) 110 % of control; (dose: 200.0 mg/kg/injection, schedule: Q01DX009 (ip), vehicle: saline sonified) 115 % of control; (dose: 400.0 mg/kg/injection, schedule: Q01DX009 (ip), vehicle: saline sonified) 120 % of control.
